# Measured values from patent US7858329B2, “Antibody tools for the diagnostic use in the medical therapy with inhibitors of histone deacetylases” (TopoTarget Germany AG, priority 2002, dated 2010).
# Legend:
# [1] = tested on: T-cell lymphomas; conditions: phase II; cited from earlier work
# [2] = tested on: acetylated histone H3 and histone H4 in U937 cells; test: Western blot of histone acetylation in U937 cells treated with HDACi; format: cell-based, human; conditions: for levels of acetylated histone H3 and histone H4 by Western blot: treatment in vitro for 6-12 hours
# [3] = tested on: cells derived from "class A" (globally hypoacetylated) primary human breast tumors; test: Apoptosis of cultured primary breast tumor cells treated with HDAC inhibitors; format: cell-based; conditions: cells from four class A tumors
# Experimental: (§1) To establish whether this classification may have additional correlations with tumor biology and potential influences on the choice of clinical therapeutic treatments, the sensitivity of tumor cells derived from “class A” or “class B” primary human breast tumors to various HDAC inhibitors was evaluated in vitro (FIG. 7-8). To investigate this further, cells derived from excision surgery of primary breast tumors were cultured (on which in parallel IHC using the T25 antibody was performed to establish the histone acetylation levels in vivo) following standard procedures (Elenbaas et al., 2001, Genes Dev 15, 50-65). After a few passages in culture (in the absence of fetal bovine serum, to eliminate contamination of fibroblasts), the cell population is greatly enriched in tumor cells. The bulk populations of cells derived from four “class A” and three “class B” tumors were then treated with VPA, or TSA (FIGS. 7-8). […] The immunohistochemical classification as described here, can therefore be used to predict the response of tumor cells to treatment with HDAC inhibitors and could thus be used for prognostic predictions whether a patient should be treated with such inhibitors.
# [4] = tested on: cells derived from "class B" primary human breast tumors; test: as above; format: cell-based; conditions: cells from three class B tumors
# Experimental: as §1
# [5] = tested on: histone acetylation in U-937 cells; test: Flow cytometry of histone acetylation (T52 staining) in U937 cells; format: cell-based, human; conditions: 10 ng/ml for 4 hrs, untreated cells 90
# Experimental: Human U-937 cells were grown in RPMI-1640 medium supplemented with 10% Fetal Bovine Serum in standard culture conditions.
# Exponentially growing U-937 cells were treated for 4 hrs with 10 ng/ml Trichostatin A (TSA, Sigma Aldrich). After the treatment cells were washed with cold phosphate buffer saline (PBS), counted and fixed in 1% formaldehyde in PBS for 15 minutes. Fixed cells were then washed, resuspended in PBS, and stocked at 4° C.
# Histone acetylation analysis was performed according to the following procedure. Cells were fixed for 15 minutes in 1% formaldehyde in PBS. 1×10^6 cells/sample were washed with PBS+1% BSA and permeabilised with 200 μl of 0.1% Triton X100 in PBS for 10 min at room temperature (to allow for the antibody to reach acetylated nuclear proteins, such as histones). After washing with PBS+1% BSA pellets were incubated with 500 μl of 10% normal goat serum (NGS) in PBS for 20 min at 4° C. Histone acetylation levels were detected by incubation with T52 mouse monoclonal antibody (1 μg/ml in PBS+1% BSA). […]
# Flow cytometry analysis was performed using a FACScan flow cytometer (Becton Dickinson), acquiring at least 10,000 events/sample. The instrument was equipped with a bandpass 530/30 nm optical filter for FITC fluorescence detection (FL1 channel) and a 650 nm longpass optical filter in front of the PI (FL3) channel detector. […]
# [6] = tested on: control-transduced (MCSV) primary tumor-derived cells; test: Sensitivity to HDAC inhibitor of transduced primary tumor-derived cell culture; format: cell-based; conditions: high histone H4 acetylation
# [7] = tested on: tumor cells transduced with HDAC/MTA constructs (HDAC-1, HDAC-2, MTA1); test: as above; format: cell-based; conditions: histone hypoacetylation
# Experimental: An aliquot of the cells was collected, and Western blot analysis (using antibodies directed against acetylated histone H4) was performed on protein extracts prepared from these cells, to verify that overexpression of either HDAC, or of MTA1, led to a decrease in histone acetylation levels of the tumor cells.
# [8] = tested on: stage III/IV non-small cell lung cancer; conditions: phase II, monotherapy; cited from earlier work
# [9] = tested on: acetylated histone H4 in U937 cells; test: Immunohistochemistry (T25) of U937 cells treated with HDACi; format: cell-based, human; conditions: 12 hours, 1 mM, T25 antibody
# Experimental: To evaluate the specificity of the T25 antibody in immunohistochemistry (IHC), the inventors performed a preliminary test in an established cell line (U937 cells). […] Untreated cells, or cells treated for 12 hours with VPA (1 mM), were either processed for Western blot analysis (FIG. 3A), or fixed in formalin and then processed for immunohistochemistry (FIG. 1B). […] The T25 antibody can therefore be used for the analysis of histone acetylation levels by western blot analysis and immunohistochemistry (IHC).
# [10] = tested on: histone acetylation in peripheral blood mononuclear cells; test: Flow cytometry of histone acetylation in blood mononuclear cells of patients under VPA treatment; format: in vivo, human; conditions: 10 to 30 mg/kg/day
# Experimental: Histone acetylation analysis was performed according to the following procedure. Cells were fixed for 15 minutes in 1% formaldehyde in PBS. 1×10^6 cells/sample were washed with PBS+1% BSA and permeabilised with 200 μl of 0.1% Triton X100 in PBS for 10 min at room temperature (to allow for the antibody to reach acetylated nuclear proteins, such as histones). After washing with PBS+1% BSA pellets were incubated with 500 μl of 10% normal goat serum (NGS) in PBS for 20 min at 4° C. Histone acetylation levels were detected by incubation with T52 mouse monoclonal antibody (1 μg/ml in PBS+1% BSA). Detection was performed by incubation with a fluorescein isothiocyanate (FITC)-conjugated affinity pure F(ab′)2 fragment of goat anti-mouse IgG (Sigma) for 1 h at room temperature in the dark.
# [11] = Plasmatic VPA concentration in treated patients; format: in vivo, human; conditions: 10 to 30 mg/kg/day
# Experimental: HDAC inhibitors are currently being tested for their clinical use in tumor patients (Marks et al., 2001, Nat Rev Cancer 1, 194-202). Therefore, the inventors evaluated the response to valproic acid, VPA (a HDAC inhibitor currently in clinical trials for several forms of cancer), in blood samples of patients subjected to VPA treatment. Peripheral blood was collected periodically before/at various times of VPA treatment (10 to 30 mg/kg/day; plasmatic VPA concentration: 0,75 mM), mononuclear cells were isolated by Ficoll analysis and then analyzed as described. […] The histone acetylation level measured in blood cells may serve as marker to evaluate the efficacy of HDAC inhibitor treatment of patients suffering from tumors, including solid tumors, to further orientate the treatment schedule.
compound,measurement,setting,value
C/C=C1\NC(=O)[C@H]2CSSCC/C=C/[C@H](CC(=O)N[C@H](C(C)C)C(=O)N2)OC(=O)[C@H](C(C)C)NC1=O [depsipeptide],clinical outcome,[1],used successfully
"CC(/C=C/C(=O)NO)=C\[C@@H](C)C(=O)c1ccc(N(C)C)cc1 [TSA, Trichostatin A]",acetylated histones H3 and H4 bands in Western blot,[2]; detection with T52 antibody (FIG. 9),greatly increased
same,levels of acetylated histone H3 and histone H4 by Western blot,[2],drastic increase
same,apoptosis upon treatment with the HDAC inhibitors,[3],showed apoptosis
same,apoptosis upon treatment with the HDAC inhibitors,[4],totally resistant
same,"mean fluorescence value (FL1-H), T52 staining",[5],450
same,sensitivity to treatment (apoptosis),[6],resistant
same,apoptosis,[7],up to 50%
CCCC(=O)OCOC(=O)C(C)(C)C [Pivanex],clinical activity,[8],demonstrating activity
"CCCC(CCC)C(=O)O [VPA, valproic acid]",levels of acetylated histone H3 and histone H4 by Western blot,[2],drastic increase
same,acetylated histone H4 staining in immunohistochemistry,[9],increase in the intensity of staining and number of stained cell nuclei
same,apoptosis upon treatment with the HDAC inhibitors,[3],showed apoptosis
same,apoptosis upon treatment with the HDAC inhibitors,[4],totally resistant
same,"Histone acetylation levels, increase",[10]; after 7-days of treatment (day 8),> 3 fold
same,Histone acetylation levels,[10]; day 28-35,further increased
same,plasmatic VPA concentration,[11],"0,75 mM"
